In the supplement of paper PMC4862054:

Legend:
Assay in all cases: normalised viability (% of control), CellTiter-Blue; higher = more viable cells (about 100 = DMSO control)
Conditions in all cases: incubation time: 72 h
[1] = test system: MFM-223
Summary of the method: (§1)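 Plates were quality-checked by Z'-factor and normalised to vehicle (100) and a positive kill control (0). The underlying assay incubated breast cancer cell lines for 72 h on 384-well plates with compound, then added 2.5 µl CellTiter-Blue for 2 h at 37 °C and read at 560/590 nm. The value is normalised viability at a single listed concentration of the series.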

[2] = test system: MDA-MB-453
Summary of the method: as §1

[3] = test system: MDA-MB-436
Summary of the method: as §1

[4] = test system: DU-4475
Summary of the method: as §1

[5] = test system: BT-549
Summary of the method: as §1

[6] = test system: CAL-148
Summary of the method: as §1

[7] = test system: SK-BR-3
Summary of the method: as §1

[8] = test system: MDA-MB-468
Summary of the method: as §1

[9] = test system: CAL-51
Summary of the method: as §1

[10] = test system: Hs578T
Summary of the method: as §1

[11] = test system: BT-474
Summary of the method: as §1

In the case of CCCCC(=O)OCC(=O)[C@]1(O)Cc2c(O)c3c(c(O)c2[C@@H](O[C@H]2C[C@H](NC(=O)C(F)(F)F)[C@H](O)[C@H](C)O2)C1)C(=O)c1c(OC)cccc1C3=O [Valrubicin], the normalised viability ([1]; 1000 nM) is reported as 72.6%, the normalised viability ([1]; 10000 nM) is reported as 24.2% and the normalised viability ([2]; 3 nM) is reported as 104%. It also gave a normalised viability ([2]; 30 nM) of 93.2%, a normalised viability ([2]; 100 nM) of 99.3% and a normalised viability ([3]; 10 nM) of 111%. It also gave a normalised viability ([3]; 1000 nM) of 84.9%, a normalised viability ([3]; 10000 nM) of 42.8% and a normalised viability ([4]; 3 nM) of 90.1%. It also gave a normalised viability ([4]; 30 nM) of 55.4%, a normalised viability ([4]; 100 nM) of 49.8% and a normalised viability ([5]; 10 nM) of 82.4%. The normalised viability ([5]; 1000 nM) was 65.1%, the normalised viability ([5]; 10000 nM) was 47.5% and the normalised viability ([6]; 3 nM) was 90.9%. The normalised viability ([6]; 30 nM) was 72.9%, the normalised viability ([6]; 100 nM) was 60.1% and the normalised viability ([7]; 10 nM) was 91.3%. The normalised viability ([7]; 1000 nM) was 25.9%, the normalised viability ([7]; 10000 nM) was 9.82% and the normalised viability ([8]; 10 nM) was 105%. It also gave a normalised viability ([8]; 1000 nM) of 42%, a normalised viability ([8]; 10000 nM) of 30.6% and a normalised viability ([9]; 3 nM) of 93.1%. It also gave a normalised viability ([9]; 30 nM) of 80%, a normalised viability ([9]; 100 nM) of 55.3% and a normalised viability ([10]; 10 nM) of 98.8%. The normalised viability ([10]; 1000 nM) was 55.5%, the normalised viability ([10]; 10000 nM) was 22% and the normalised viability ([11]; 10 nM) was 114%. The normalised viability ([11]; 1000 nM) was 74.9% and the normalised viability ([11]; 10000 nM) was 55.1%.
